The text below walks through data of patent US9394297B2, “Amides as pim inhibitors” (AMGEN INC., priority 2012, dated 2016).

pIC50: −log10 of the molar value. Where two headings read alike, the source gives them in different places.

Assay [1] concerns KMS-12-BM myeloma cell line. As to the kind of experiment: Pim KMS-12 cell assay (phospho-BAD S112 / total BAD, MSD).
A further assay has as its target Pim-1 (Homo sapiens (Human), UniProt P11309). As to the kind of experiment: Pim-Mn enzyme assay (HTRF, 384-well), Pim-1. Type of assay: biochemical. Conditions: read-out: Pim-1-Mn IC50 IP. (In general: In TR-FRET formats the signal depends on donor and acceptor labels being close together.)
The next assay has as its system KMS-12-BM cell lines. The experiment in a line: KMS12 #2 flow cytometry assay (phospho-BAD Ser112). The settings on record: KMS-12-BM cells, pBAD Ser112 by flow cytometry, 110 min with compound, read-out: KMS-12-Flow IC50 IP. It is filed as cell-based. A general note: In flow cytometry, cells or beads pass a laser one at a time.
For the next assay, the target named is Pim-2 (Homo sapiens (Human), UniProt Q9P1W9). As to the kind of experiment: Pim-Mn enzyme assay (HTRF, 384-well), Pim-2. The settings on record: read-out: Pim-2-Mn IC50 IP. It is filed as biochemical.
The mark [2] stands for this setting: Homo sapiens, KMS-12-BM, read-out: KMS-12-BM IC50 IP, KMS-12-BM cells, phospho-BAD (S112) vs total BAD, 1 hour 50 min with compound.
[3] abbreviates: Pim-1 enzyme 5 pM, ATP 1.5 μM, BAD (S112) 0.5 μM, HTRF, 22-point curve.
Setting [4] is: Pim-2 enzyme 0.5 pM, ATP 1.5 μM, BAD (S112) 0.5 μM, HTRF, 22-point curve.

Pim-2, sequence (Q9P1W9 whole entry): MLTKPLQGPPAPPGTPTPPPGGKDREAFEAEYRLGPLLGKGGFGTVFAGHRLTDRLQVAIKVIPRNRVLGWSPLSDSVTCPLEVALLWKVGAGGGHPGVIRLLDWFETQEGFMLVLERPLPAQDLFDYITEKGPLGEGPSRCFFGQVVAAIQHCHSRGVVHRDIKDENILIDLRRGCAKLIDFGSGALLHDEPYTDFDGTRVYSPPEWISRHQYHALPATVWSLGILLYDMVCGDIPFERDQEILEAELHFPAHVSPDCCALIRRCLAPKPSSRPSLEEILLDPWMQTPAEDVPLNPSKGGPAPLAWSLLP
Pim-1, sequence (P11309 whole entry): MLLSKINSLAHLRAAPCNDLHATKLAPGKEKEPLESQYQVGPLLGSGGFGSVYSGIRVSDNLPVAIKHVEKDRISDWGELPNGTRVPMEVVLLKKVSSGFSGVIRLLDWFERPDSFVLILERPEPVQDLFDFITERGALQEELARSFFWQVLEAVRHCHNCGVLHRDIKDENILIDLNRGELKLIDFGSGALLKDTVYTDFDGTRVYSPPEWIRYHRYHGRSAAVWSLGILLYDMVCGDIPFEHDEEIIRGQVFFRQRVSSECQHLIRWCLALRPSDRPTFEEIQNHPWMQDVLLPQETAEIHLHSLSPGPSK

`CCC1CNC(=O)c2cc(-c3cccc4ccc(Nc5ccccc5)nc34)[nH]c21` (racemic) [Example 24, rac-7-ethyl-2-(2-(phenylamino)quinolin-8-yl)-6,7-dihydro-1H-pyrrolo[3,2-c]pyridin-4(5H)-one]: the pIC50 – broadly, the IC50 on a negative log10 scale, so that one unit is a factor of ten – in assay [1] (setting [2]) was 5.85.

With `Cc1nc2cccc(-c3cc4c([nH]3)CCNC4=O)c2nc1NC(C)C(C)C` (racemic) [Example 73, 2-(3-4(±)-1,2-dimethylpropyl)amino)-2-methyl-5-quinoxalinyl)-1,5,6,7-tetrahydro-4H-pyrrolo[3,2-c]pyridin-4-one], in assay [1] (setting [2]), the negative-log IC50 (pIC50) was 6.97.

Regarding `Cc1nc2cccc(-c3cc4c([nH]3)CCNC4=O)c2nc1NC1CCCOC1` (racemic) [Example 198, rac-2-(2-methyl-3-((tetrahydro-2H-pyran-3-yl)amino)quinoxalin-5-yl)-6,7-dihydro-1H-pyrrolo[3,2-c]pyridin-4(5H)-one], the pIC50 in assay [1] (setting [2]) was 6.51.

For `CC1CNC(=O)c2cc(-c3cccc4ccc(Nc5ccccc5)nc34)[nH]c21` (racemic) [Example 238, rac-7-methyl-2-(2-(phenylamino)quinolin-8-yl)-6,7-dihydro-1H-pyrrolo[3,2-c]pyridin-4(5H)-one], in assay [1] (setting [2]), the pIC50 was 5.89.

For the molecule `CC1CNC(=O)c2cc(-c3cccc4ccc(Nc5ccccc5)nc34)[nH]c21` (single isomer, unassigned) [Example 29, 7-methyl-2-(2-(phenylamino)quinolin-8-yl)-6,7-dihydro-1H-pyrrolo[3,2-c]pyridin-4(5H)-one], the pIC50 in assay [1] (read-out: KMS-12-BM IC50 IP, KMS-12-BM cells, phospho-BAD (S112) vs total BAD, 1 hour 50 min with compound) is 6.13.

As to `Cc1nc2cccc(-c3cc4c([nH]3)CCNC4=O)c2nc1N[C@H]1C[C@@H](NC(=O)OC(C)(C)C)C1` [Example 434, tert-butyl ((1s,3s)-3-((3-methyl-8-(4-oxo-4,5,6,7-tetrahydro-1H-pyrrolo[3,2-c]pyridin-2-yl)quinoxalin-2-yl)amino)cyclobutyl)carbamate], the pIC50 on Pim-1 (setting [3]) was 7.74; with KMS-12-BM cell lines, 5.88; on Pim-2 (setting [4]) it was 7.76.

`Cc1nc2cccc(-c3cc4c([nH]3)CCNC4=O)c2nc1N[C@H]1C[C@@H](NCCS(C)(=O)=O)C1` [Example 441, 2-(2-Methyl-3-((cis-3-((2-(methylsulfonyl)ethyl)amino)cyclobutyl)amino)quinoxalin-5-yl)-6,7-dihydro-1H-pyrrolo[3,2-c]pyridin-4(5H)-one]: the pIC50 on Pim-1 (setting [3]) is 9.15; in the assay on KMS-12-BM cell lines (Homo sapiens, 110 min) it was less than 4.40; at Pim-2 (setting [4]), 8.89.

With `Cc1nc2cccc(-c3cc4c([nH]3)CCNC4=O)c2nc1N[C@H]1C[C@H](O)C1` [Example 442, 2-(3-((trans-3-Hydroxycyclobutyl)amino)-2-methylquinoxalin-5-yl)-6,7-dihydro-1H-pyrrolo[3,2-c]pyridin-4(5H)-one], the negative-log IC50 (pIC50) on Pim-1 (setting [3]) was 8.47; with KMS-12-BM cell lines (Homo sapiens, 110 min) it was 6.28; on Pim-2 (setting [4]), 8.76.

With `CC(=O)Nc1nc2c(-c3cc4c([nH]3)CCNC4=O)cccc2nc1C` [Example 445, N-(3-methyl-8-(4-oxo-4,5,6,7-tetrahydro-1H-pyrrolo[3,2-c]pyridin-2-yl)quinoxalin-2-yl)acetamide], the negative-log IC50 (pIC50) on Pim-1 (setting [3]) is 7.55; in the assay on KMS-12-BM cell lines (Homo sapiens, 110 min) it was less than 4.40; at Pim-2 (setting [4]) it was 7.70.

With `Cc1nc2cccc(-c3cc4c([nH]3)CCNC4=O)c2nc1NC(=O)C1CC1` [Example 446, N-(3-methyl-8-(4-oxo-4,5,6,7-tetrahydro-1H-pyrrolo[3,2-c]pyridin-2-yl)quinoxalin-2-yl)cyclopropanecarboxamide], the pIC50 on Pim-1 (setting [3]) is 6.84; with KMS-12-BM cell lines (Homo sapiens, 110 min), less than 4.40; on Pim-2 (setting [4]), 6.88.

For the molecule `Cc1nc2cccc(-c3cc4c([nH]3)CCNC4=O)c2nc1NC(=N)N` [Example 447, 1-(3-methyl-8-(4-oxo-4,5,6,7-tetrahydro-1H-pyrrolo[3,2-c]pyridin-2-yl)quinoxalin-2-yl)guanidine], the pIC50 at Pim-1 (setting [3]) was 6.88; with KMS-12-BM cell lines (Homo sapiens, 110 min), 5.58; at Pim-2 (setting [4]), 6.86.

Regarding `Cc1nc2cccc(-c3cc4c([nH]3)[C@@H](C)NC4=O)c2nc1O[C@@H](C)C(F)(F)F` [Example 452, (6R)-6-methyl-2-(2-methyl-3-((1S)-2,2,2-trifluoro-1-methylethoxy)-5-quinoxalinyl)-5,6-dihydropyrrolo[3,4-b]pyrrol-4(1H)-one], the pIC50 was 7.67 on Pim-1 (setting [3]); 5.50 with KMS-12-BM cell lines (Homo sapiens, 110 min); 7.49 on Pim-2 (setting [4]).

Regarding `Cc1nc2cccc(-c3cc4c([nH]3)[C@@H](C)NC4=O)c2nc1O[C@H](C)C(F)(F)F` [Example 453, (6R)-6-methyl-2-(2-methyl-3-((1R)-2,2,2-trifluoro-1-methylethoxy)-5-quinoxalinyl)-5,6-dihydropyrrolo[3,4-b]pyrrol-4(1H)-one], the pIC50 was 7.43 at Pim-1 (setting [3]); less than 4.40 in the assay on KMS-12-BM cell lines (Homo sapiens, 110 min); 6.59 on Pim-2 (setting [4]).

With `Cc1nc2cccc(-c3cc4c([nH]3)CCNC4=O)c2nc1NC(C)(C)CN1CCOCC1` [Example 457, 2-(3-((1,1-dimethyl-2-(4-morpholinyl)ethyl)amino)-2-methyl-5-quinoxalinyl)-1,5,6,7-tetrahydro-4H-pyrrolo[3,2-c]pyridin-4-one], the pIC50 at Pim-1 (setting [3]) was 7.45; with KMS-12-BM cell lines (Homo sapiens, 110 min), 5.46; on Pim-2 (setting [4]), 6.87.

Regarding `COCCn1c(NC(C)(C)C)nc2c(-c3cc4c([nH]3)CNC4=O)cccc2c1=O` [Example 458, 2-(tert-butylamino)-3-(2-methoxyethyl)-8-(4-oxo-1,4,5,6-tetrahydropyrrolo[3,4-b]pyrrol-2-yl)-4(3H)-quinazolinone], the pIC50 at Pim-1 (setting [3]) is 9.49; in the assay with KMS-12-BM cell lines (Homo sapiens, 110 min) it was 7.26; at Pim-2 (setting [4]), 9.66.

Take `COCCn1c(NC(C)(C)C)nc2c(-c3cc4c([nH]3)[C@@H](C)NC4=O)cccc2c1=O` [Example 459, 2-(tert-butylamino)-3-(2-methoxyethyl)-8-((6R)-6-methyl-4-oxo-1,4,5,6-tetrahydropyrrolo[3,4-b]pyrrol-2-yl)-4(3H)-quinazolinone]: the pIC50 at Pim-1 (setting [3]) was 9.70; with KMS-12-BM cell lines (Homo sapiens, 110 min), 7.12; at Pim-2 (setting [4]) it was 9.71.

As to `C[C@H]1NC(=O)c2cc(-c3cccc4c(=O)n(C)c(OC5(C)CC5)nc34)[nH]c21` [Example 460, 3-methyl-2-((1-methylcyclopropyl)oxy)-8-((6R)-6-methyl-4-oxo-1,4,5,6-tetrahydropyrrolo[3,4-b]pyrrol-2-yl)-4(3H)-quinazolinone], the pIC50 was 9.26 on Pim-1 (setting [3]); 7.03 with KMS-12-BM cell lines (Homo sapiens, 110 min); 9.00 on Pim-2 (setting [4]).

`Cc1nc2cccc(-c3cc4c([nH]3)C(CCO)NC4=O)c2nc1NC(C)(C)C` (centres unmarked) [Example 462, 2-(3-(tert-butylamino)-2-methyl-5-quinoxalinyl)-6-(2-hydroxyethyl)-5,6-dihydropyrrolo[3,4-b]pyrrol-4(1H)-one]: the negative-log IC50 (pIC50) on Pim-1 (setting [3]) is 9.29; with KMS-12-BM cell lines (Homo sapiens, 110 min), 6.91; at Pim-2 (setting [4]), 9.33.

Take `C[C@H]1NC(=O)c2cc(-c3cccc4c(=O)n(C)c(NC5(C)CCC5)nc34)[nH]c21` [Example 465, 3-methyl-2-((1-methylcyclobutyl)amino)-8-((6R)-6-methyl-4-oxo-1,4,5,6-tetrahydropyrrolo[3,4-b]pyrrol-2-yl)-4(3H)-quinazolinone]: the negative-log IC50 (pIC50) at Pim-1 (setting [3]) was 10.13; in the assay on KMS-12-BM cell lines (Homo sapiens, 110 min) it was 7.46; on Pim-2 (setting [4]), 9.89.

On to `Cc1nc2cccc(-c3cc4c([nH]3)C(C)(C)NC4=O)c2nc1NC(C)(C)C` [Example 466, 2-(3-(tert-butylamino)-2-methyl-5-quinoxalinyl)-6,6-dimethyl-5,6-dihydropyrrolo[3,4-b]pyrrol-4(1H)-one], for which the negative-log IC50 (pIC50) was 8.64 at Pim-1; 7.12 with KMS-12-BM cell lines (Homo sapiens, 110 min); 8.71 at Pim-2.

With `Cc1nc2cccc(-c3cc(C(N)=O)n[nH]3)c2nc1NC(C)(C)C` [Example 467, 5-(3-(tert-butylamino)-2-methylquinoxalin-5-yl)-1H-pyrazole-3-carboxamide], the pIC50 on Pim-1 (setting [3]) is 7.67; in the assay on KMS-12-BM cell lines (Homo sapiens, 110 min) it was 5.41; at Pim-2 (setting [4]), 8.05.

For `Cc1nc2cccc(-c3cc4n(n3)CCNC4=O)c2nc1NC(C)(C)C` [Example 471, 2-(3-(tert-butylamino)-2-methylquinoxalin-5-yl)-6,7-dihydropyrazolo[1,5-a]pyrazin-4(5H)-one], the pIC50 at Pim-1 (setting [3]) was 6.79; with KMS-12-BM cell lines (Homo sapiens, 110 min) it was 4.81; at Pim-2, 6.23.

`COCCN(CCOC)CCC(C)(C)Nc1nc2c(-c3cc4c([nH]3)CNC4=O)cccc2c(=O)n1C` [Example 473, 2-((4-(bis(2-methoxyethyl)amino)-2-methylbutan-2-yl)amino)-3-methyl-8-(4-oxo-1,4,5,6-tetrahydropyrrolo[3,4-b]pyrrol-2-yl)quinazolin-4(3H)-one]: the negative-log IC50 (pIC50) was 7.94 on Pim-1 (setting [3]); 4.91 in the assay on KMS-12-BM cell lines (Homo sapiens, 110 min); 7.44 on Pim-2 (setting [4]).

Turning to `COCCOCCn1c(NC(C)(C)C)nc2c(-c3cc4c([nH]3)[C@@H](C)NC4=O)cccc2c1=O` [Example 474, 2-(tert-butylamino)-3-(2-(2-methoxyethoxyl)ethyl)-8-((6R)-6-methyl-4-oxo-1,4,5,6-tetrahydropyrrolo[3,4-b]pyrrol-2-yl)-4(3H)-quinazolinone], the pIC50 was 8.87 on Pim-1 (setting [3]); 6.92 with KMS-12-BM cell lines (Homo sapiens, 110 min); 9.04 at Pim-2 (setting [4]).
